Patent publication US10150760B2, “Compounds for use in preparing heterocyclic triazole agonists of the APJ receptor” (AMGEN INC., priority 2016, dated 2018)

Molecular target: human APJ receptor (Homo sapiens (Human), UniProt P35414)
Assay: [35S]GTPγS binding assay on membranes from CHO cells stably expressing human APJ receptor
Type: biochemical
Conditions: read-out: Activity hAPJ SPA EC50 IP
Procedure, shortened: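 Membranes from CHO cells stably expressing human APJ incubated with ligand, 0.2 nM [35S]GTPγS and WGA SPA beads in HEPES pH 7.5 with 5 mM MgCl2, 200 mM NaCl, 3 μM GDP, 90 min at RT. Nonspecific binding defined with 100 μM GTPγS; EC50 by non-linear regression.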

human APJ receptor, sequence (P35414 whole entry): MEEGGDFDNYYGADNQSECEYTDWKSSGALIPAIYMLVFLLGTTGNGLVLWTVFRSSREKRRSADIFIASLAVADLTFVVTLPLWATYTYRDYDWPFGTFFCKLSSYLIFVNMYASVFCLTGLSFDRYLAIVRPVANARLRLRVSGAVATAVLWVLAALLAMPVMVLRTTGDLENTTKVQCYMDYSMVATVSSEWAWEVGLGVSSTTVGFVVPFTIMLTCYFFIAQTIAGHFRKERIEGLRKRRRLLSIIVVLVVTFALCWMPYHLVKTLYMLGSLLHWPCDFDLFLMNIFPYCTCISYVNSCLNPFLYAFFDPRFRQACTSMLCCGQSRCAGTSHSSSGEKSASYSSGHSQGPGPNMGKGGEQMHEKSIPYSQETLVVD

SMILES	EC50 [nM]
CO[C@H](c1ncc(Cl)cn1)[C@H](C)S(=O)(=O)Nc1nnc([C@H]2CCC(C)(C)O2)n1C(C)C (single isomer, unassigned) [Example 299.0, (1R,2S)-1-(5-chloropyrimidin-2-yl)-N-(5-((R)-5,5-dimethyltetrahydrofuran-2-yl)-4-isopropyl-4H-1,2,4-triazol-3-yl)-1-methoxypropane-2-sulfonamide or (1R,2S)-1-(5-chloropyrimidin-2-yl)-N-(5-((S)-5,5-dimethyltetrahydrofuran-2-yl)-4-isopropyl-4H-1,2,4-triazol-3-yl)-1-methoxypropane-2-sulfonamide]	940
CO[C@H](c1ncc(Cl)cn1)[C@H](C)S(=O)(=O)Nc1nnc([C@H]2CCC(C)(C)O2)n1C(C)C (single isomer, unassigned) [Example 300.0, (1R,2S)-1-(5-chloropyrimidin-2-yl)-N-(5-((R)-5,5-dimethyltetrahydrofuran-2-yl)-4-isopropyl-4H-1,2,4-triazol-3-yl)-1-methoxypropane-2-sulfonamide or (1R,2S)-1-(5-chloropyrimidin-2-yl)-N-(5-((S)-5,5-dimethyltetrahydrofuran-2-yl)-4-isopropyl-4H-1,2,4-triazol-3-yl)-1-methoxypropane-2-sulfonamide]	1400
CO[C@H](c1ncc(Cl)cn1)[C@H](C)S(=O)(=O)Nc1nnc([C@H]2COCCO2)n1C(C)C (single isomer, unassigned) [Example 301.0, (1R,2S)-N-(5-((S)-1,4-dioxan-2-yl)-4-isopropyl-4H-1,2,4-triazol-3-yl)-1-(5-chloropyrimidin-2-yl)-1-methoxypropane-2-sulfonamide or (1R,2S)-N-(5-((R)-1,4-dioxan-2-yl)-4-isopropyl-4H-1,2,4-triazol-3-yl)-1-(5-chloropyrimidin-2-yl)-1-methoxypropane-2-sulfonamide]	2900
CO[C@H](c1ncc(Cl)cn1)[C@H](C)S(=O)(=O)Nc1nnc([C@H]2COCCO2)n1C(C)C (single isomer, unassigned) [Example 302.0, (1R,2S)-N-(5-((S)-1,4-dioxan-2-yl)-4-isopropyl-4H-1,2,4-triazol-3-yl)-1-(5-chloropyrimidin-2-yl)-1-methoxypropane-2-sulfonamide or (1R,2S)-N-(5-((R)-1,4-dioxan-2-yl)-4-isopropyl-4H-1,2,4-triazol-3-yl)-1-(5-chloropyrimidin-2-yl)-1-methoxypropane-2-sulfonamide]	710
COCCn1c(NS(=O)(=O)[C@@H](C)[C@H](OC)c2ncc(Cl)cn2)nnc1[C@H]1CCOC1 (single isomer, unassigned) [Example 309.0, (1R,2S)-1-(5-chloropyrimidin-2-yl)-1-methoxy-N-(4-(2-methoxyethyl)-5-((R)-tetrahydrofuran-3-yl)-4H-1,2,4-triazol-3-yl)propane-2-sulfonamide or (1R,2S)-1-(5-chloropyrimidin-2-yl)-1-methoxy-N-(4-(2-methoxyethyl)-5-((S)-tetrahydrofuran-3-yl)-4H-1,2,4-triazol-3-yl)propane-2-sulfonamide]	2600
COCCn1c(NS(=O)(=O)[C@@H](C)[C@H](OC)c2ncc(Cl)cn2)nnc1[C@H]1CCOC1 (single isomer, unassigned) [Example 310.0, (1R,2S)-1-(5-chloropyrimidin-2-yl)-1-methoxy-N-(4-(2-methoxyethyl)-5-((R)-tetrahydrofuran-3-yl)-4H-1,2,4-triazol-3-yl)propane-2-sulfonamide or (1R,2S)-1-(5-chloropyrimidin-2-yl)-1-methoxy-N-(4-(2-methoxyethyl)-5-((S)-tetrahydrofuran-3-yl)-4H-1,2,4-triazol-3-yl)propane-2-sulfonamide]	540
COCCn1c(NS(=O)(=O)[C@@H](C)[C@H](OC)c2ncc(Cl)cn2)nnc1[C@@H]1COCCO1 (single isomer, unassigned) [Example 311.0, (1R,2S)-N-(5-((R)-1,4-dioxan-2-yl)-4-(2-methoxyethyl)-4H-1,2,4-triazol-3-yl)-1-(5-chloropyrimidin-2-yl)-1-methoxypropane-2-sulfonamide or (1R,2S)-N-(5-((S)-1,4-dioxan-2-yl)-4-(2-methoxyethyl)-4H-1,2,4-triazol-3-yl)-1-(5-chloropyrimidin-2-yl)-1-methoxypropane-2-sulfonamide]	1700
COCCn1c(NS(=O)(=O)[C@@H](C)[C@H](OC)c2ncc(Cl)cn2)nnc1[C@@H]1COCCO1 (single isomer, unassigned) [Example 312.0, (1R,2S)-N-(5-((R)-1,4-dioxan-2-yl)-4-(2-methoxyethyl)-4H-1,2,4-triazol-3-yl)-1-(5-chloropyrimidin-2-yl)-1-methoxypropane-2-sulfonamide or (1R,2S)-N-(5-((S)-1,4-dioxan-2-yl)-4-(2-methoxyethyl)-4H-1,2,4-triazol-3-yl)-1-(5-chloropyrimidin-2-yl)-1-methoxypropane-2-sulfonamide]	1900
COc1cccc(OC)c1-n1c(NS(=O)(=O)[C@@H](C)[C@H](C)c2ncc(F)cn2)nnc1[C@H]1CCC(C)(C)O1 (single isomer, unassigned) [Example 333.0, (2S,3R)-N-(4-(2,6-dimethoxyphenyl)-5-((R)-5,5-dimethyltetrahydrofuran-2-yl)-4H-1,2,4-triazol-3-yl)-3-(5-fluoropyrimidin-2-yl)butane-2-sulfonamide or (2S,3R)-N-(4-(2,6-dimethoxyphenyl)-5-((S)-5,5-dimethyltetrahydrofuran-2-yl)-4H-1,2,4-triazol-3-yl)-3-(5-fluoropyrimidin-2-yl)butane-2-sulfonamide]	190
COc1cccc(OC)c1-n1c(NS(=O)(=O)[C@@H](C)[C@H](C)c2ncc(F)cn2)nnc1[C@H]1CCC(C)(C)O1 (single isomer, unassigned) [Example 334.0, (2S,3R)-N-(4-(2,6-dimethoxyphenyl)-5-((R)-5,5-dimethyltetrahydrofuran-2-yl)-4H-1,2,4-triazol-3-yl)-3-(5-fluoropyrimidin-2-yl)butane-2-sulfonamide or (2S,3R)-N-(4-(2,6-dimethoxyphenyl)-5-((S)-5,5-dimethyltetrahydrofuran-2-yl)-4H-1,2,4-triazol-3-yl)-3-(5-fluoropyrimidin-2-yl)butane-2-sulfonamide]	2.5
CCC(CC)n1c(NS(=O)(=O)[C@@H](C)[C@H](OC)c2ncc(Cl)cn2)nnc1[C@@H]1COCCO1 (single isomer, unassigned) [Example 335.0, (1R,2S)-1-(5-chloro-2-pyrimidinyl)-N-(5-((2R)-1,4-dioxan-2-yl)-4-(3-pentanyl)-4H-1,2,4-triazol-3-yl)-1-methoxy-2-propanesulfonamide or (1R,2S)-1-(5-chloro-2-pyrimidinyl)-N-(5-((2S)-1,4-dioxan-2-yl)-4-(3-pentanyl)-4H-1,2,4-triazol-3-yl)-1-methoxy-2-propanesulfonamide]	38
CCC(CC)n1c(NS(=O)(=O)[C@@H](C)[C@H](OC)c2ncc(Cl)cn2)nnc1[C@@H]1COCCO1 (single isomer, unassigned) [Example 336.0, (1R,2S)-1-(5-chloro-2-pyrimidinyl)-N-(5-((2R)-1,4-dioxan-2-yl)-4-(3-pentanyl)-4H-1,2,4-triazol-3-yl)-1-methoxy-2-propanesulfonamide or (1R,2S)-1-(5-chloro-2-pyrimidinyl)-N-(5-((2S)-1,4-dioxan-2-yl)-4-(3-pentanyl)-4H-1,2,4-triazol-3-yl)-1-methoxy-2-propanesulfonamide]	1400
CO[C@H](c1ncc(Cl)cn1)[C@H](C)S(=O)(=O)Nc1nnc([C@@H]2COCCO2)n1C(C1CC1)C1CC1 (single isomer, unassigned) [Example 337.0, (1R,2S)-1-(5-chloro-2-pyrimidinyl)-N-(4-(dicyclopropylmethyl)-5-((2R)-1,4-dioxan-2-yl)-4H-1,2,4-triazol-3-yl)-1-methoxy-2-propanesulfonamide or (1R,2S)-1-(5-chloro-2-pyrimidinyl)-N-(4-(dicyclopropylmethyl)-5-((2S)-1,4-dioxan-2-yl)-4H-1,2,4-triazol-3-yl)-1-methoxy-2-propanesulfonamide]	6.9
CO[C@H](c1ncc(Cl)cn1)[C@H](C)S(=O)(=O)Nc1nnc([C@@H]2COCCO2)n1C(C1CC1)C1CC1 (single isomer, unassigned) [Example 338.0, (1R,2S)-1-(5-chloro-2-pyrimidinyl)-N-(4-(dicyclopropylmethyl)-5-((2R)-1,4-dioxan-2-yl)-4H-1,2,4-triazol-3-yl)-1-methoxy-2-propanesulfonamide or (1R,2S)-1-(5-chloro-2-pyrimidinyl)-N-(4-(dicyclopropylmethyl)-5-((2S)-1,4-dioxan-2-yl)-4H-1,2,4-triazol-3-yl)-1-methoxy-2-propanesulfonamide]	110
COCC1(n2c(NS(=O)(=O)[C@@H](C)[C@H](OC)c3ncc(Cl)cn3)nnc2[C@H]2CCOC2)CC1 (single isomer, unassigned) [Example 339.0, (1R,2S)-1-(5-chloro-2-pyrimidinyl)-1-methoxy-N-(4-(1-(methoxymethyl)cyclopropyl)-5-((3R)-tetrahydro-3-furanyl)-4H-1,2,4-triazol-3-yl)-2-propanesulfonamide or (1R,2S)-1-(5-chloro-2-pyrimidinyl)-1-methoxy-N-(4-(1-(methoxymethyl)cyclopropyl)-5-((3S)-tetrahydro-3-furanyl)-4H-1,2,4-triazol-3-yl)-2-propanesulfonamide]	1440
COCC1(n2c(NS(=O)(=O)[C@@H](C)[C@H](OC)c3ncc(Cl)cn3)nnc2[C@H]2CCOC2)CC1 (single isomer, unassigned) [Example 340.0, (1R,2S)-1-(5-chloro-2-pyrimidinyl)-1-methoxy-N-(4-(1-(methoxymethyl)cyclopropyl)-5-((3R)-tetrahydro-3-furanyl)-4H-1,2,4-triazol-3-yl)-2-propanesulfonamide or (1R,2S)-1-(5-chloro-2-pyrimidinyl)-1-methoxy-N-(4-(1-(methoxymethyl)cyclopropyl)-5-((3S)-tetrahydro-3-furanyl)-4H-1,2,4-triazol-3-yl)-2-propanesulfonamide]	150
